Assay results taken from US20080181961A1, “AMORPHOUS OXCARBAZEPINE AND THE PRODUCTION THEREOF” (ISP INVESTMENTS, INC., priority 2007, published 2008).

Assay: Aqueous release, USP apparatus II (paddles), water with 6% Cremophor EL (sink conditions)
Format: physicochemical
Conditions: 37° C., 100 rpm to 60 minutes then 200 rpm for 15 minutes, 600 mg dose, FIG. 2
Experimental: Dissolution profiles can be determined using USP apparatus II (paddles) (VK 7010®, Varian Inc.), with a bath temperature of 37° C. and a paddle speed of 100 rpm for 60 minutes, followed by a paddle speed of 200 rpm for an additional 15 minutes.
The aqueous release of the spray dried powder was measured using USP apparatus II (paddles) at 37° C. in water with 6% Cremophor EL. The paddle speed was 100 rpm for the first 60 minutes, and then the paddle speed was increased to 200 rpm for an additional 15 minutes. A dose equivalent to 600 mg oxcarbazepine was filled into hard gelatin capsules (Qualicaps, Shionogi). This media creates sink conditions for the tested dose. • 5.
The release profile of this spray dried product was measured using the same dissolution method of Example 1, that is, in media that creates sink conditions for the tested dose. • 5.

oxcarbazepine release after the first 15 minutes: remained essentially constant
SMILES: NC(=O)N1c2ccccc2CC(=O)c2ccccc21 [crystalline oxcarbazepine, 10,11-dihydro-10-oxo-5H-dibenz[b,f]azepine-5-carboxamide]
